# Literature values in patent US20200289412A1, “BIOENHANCED SPIRULINA LOZENGE FORMULATION” (priority 2019, published 2020).
# What was measured:
# tumor cell = conditions: time-dependent; not directly killing cancer cells
# [1] = tested on: human immunodeficiency virus-1 virus (HIV-1)
Substance,tumor cell growth (tumor cell),in vitro replication (mumps virus),in vitro replication [1],in vitro replication (measles virus),in vitro replication (influenza A virus),in vitro replication (Herpes simplex type I),in vitro replication (human cytomegalovirus)
Spirulina polysaccharide [PSP],inhibiting tumor cell growth,,,,,,
calcium spirulan [Ca-Sp],,inhibits the in vitro replication,inhibits the in vitro replication,inhibits the in vitro replication,inhibits the in vitro replication,inhibits the in vitro replication,inhibits the in vitro replication
